Common to all, as to assay: Drug affinity chromatography with c-ponatinib and LC-MS/MS (ponatinib interactome)
What all share (type): binding

For assay [1], the target named is T1, proteins of U2OS cell lysate (Homo sapiens, UniProt Q92522).
T1 construct: Proteins enriched by c-ponatinib from U2OS cell lysate; endogenous in cells; host or cells: U2OS cell lysate
As to conditions: H1FX, Histone H1x. The gist of the method: (§1)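 U2OS cell lysate in NP-40 lysis buffer (2 mg protein per pulldown) was incubated with amine-derivatized NHS beads for 2 h at 4 °C. Bound proteins were washed, eluted with 100 mM formic acid, reduced, alkylated and trypsin-digested, then identified by nano-UPLC–MS/MS on Orbitrap instruments with a 60 min gradient.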

Assay [2] concerns the target T2, proteins of U2OS cell lysate (Homo sapiens, UniProt Q6PHR2).
T2 construct: Proteins enriched by c-ponatinib from U2OS cell lysate; endogenous in cells; host or cells: U2OS cell lysate
As to conditions: ULK3, Serine/threonine-protein kinase ULK3. The gist of the method:
as §1

Assay [3] has as its target T3, proteins of U2OS cell lysate (Homo sapiens, UniProt Q9H2K8).
T3 construct: Proteins enriched by c-ponatinib from U2OS cell lysate; endogenous in cells; host or cells: U2OS cell lysate
As to conditions: TAOK3;TAOK1;TAOK2, Serine/threonine-protein kinase TAO3. The gist of the method:
as §1

For assay [4], the target named is T4, proteins of U2OS cell lysate (Homo sapiens, UniProt P29317).
T4 construct: Proteins enriched by c-ponatinib from U2OS cell lysate; endogenous in cells; host or cells: U2OS cell lysate
As to conditions: EPHA2, Ephrin type-A receptor 2. The gist of the method: as §1

For assay [5], the target named is T5, proteins of U2OS cell lysate (Homo sapiens, UniProt P62491).
T5 construct: Proteins enriched by c-ponatinib from U2OS cell lysate; endogenous in cells; host or cells: U2OS cell lysate
As to conditions: RAB11A;RAB11B, Ras-related protein Rab-11A. The gist of the method: as §1

The target of assay [6] is T6, proteins of U2OS cell lysate (Homo sapiens, UniProt Q9ULV4).
T6 construct: Proteins enriched by c-ponatinib from U2OS cell lysate; endogenous in cells; host or cells: U2OS cell lysate
As to conditions: CORO1C, Coronin-1C. The gist of the method:
as §1

The target in assay [7] is T7, proteins of U2OS cell lysate (Homo sapiens, UniProt P23284).
T7 construct: Proteins enriched by c-ponatinib from U2OS cell lysate; endogenous in cells; host or cells: U2OS cell lysate
As to conditions: PPIB, Peptidyl-prolyl cis-trans isomerase B. The gist of the method: as §1

In assay [8] the target is T8, proteins of U2OS cell lysate (Homo sapiens, UniProt P23528).
T8 construct: Proteins enriched by c-ponatinib from U2OS cell lysate; endogenous in cells; host or cells: U2OS cell lysate
As to conditions: CFL1, Cofilin-1. The gist of the method: as §1

The target of assay [9] is T9, proteins of U2OS cell lysate (Homo sapiens, UniProt Q8N3V7).
T9 construct: Proteins enriched by c-ponatinib from U2OS cell lysate; endogenous in cells; host or cells: U2OS cell lysate
As to conditions: SYNPO, Synaptopodin. The gist of the method: as §1

For assay [10], the target named is T10, proteins of U2OS cell lysate (Homo sapiens, UniProt O00231).
T10 construct: Proteins enriched by c-ponatinib from U2OS cell lysate; endogenous in cells; host or cells: U2OS cell lysate
As to conditions: PSMD11, 26S proteasome non-ATPase regulatory subunit 11. The gist of the method: as §1

Assay [11] addresses T11, proteins of U2OS cell lysate (Homo sapiens, UniProt P26368).
T11 construct: Proteins enriched by c-ponatinib from U2OS cell lysate; endogenous in cells; host or cells: U2OS cell lysate
As to conditions: U2AF2, Splicing factor U2AF 65 kDa subunit. The gist of the method:
as §1

For assay [12], the target named is T12, proteins of U2OS cell lysate (Homo sapiens, UniProt Q9Y512).
T12 construct: Proteins enriched by c-ponatinib from U2OS cell lysate; endogenous in cells; host or cells: U2OS cell lysate
As to conditions: SAMM50, Sorting and assembly machinery component 50 homolog. The gist of the method: as §1

Assay [13] has as its target T13, proteins of U2OS cell lysate (Homo sapiens, UniProt P34932).
T13 construct: Proteins enriched by c-ponatinib from U2OS cell lysate; endogenous in cells; host or cells: U2OS cell lysate
As to conditions: HSPA4, Heat shock 70 kDa protein 4. The gist of the method:
as §1

The target in assay [14] is T14, proteins of U2OS cell lysate (Homo sapiens, UniProt P68371).
T14 construct: Proteins enriched by c-ponatinib from U2OS cell lysate; endogenous in cells; host or cells: U2OS cell lysate
As to conditions: TUBB4B;TUBB8, Tubulin beta-4B chain. The gist of the method:
as §1

The target of assay [15] is T15, proteins of U2OS cell lysate (Homo sapiens, UniProt Q15149).
T15 construct: Proteins enriched by c-ponatinib from U2OS cell lysate; endogenous in cells; host or cells: U2OS cell lysate
As to conditions: PLEC, Plectin. The gist of the method: as §1

Assay [16] deals with T16, proteins of U2OS cell lysate (Homo sapiens, UniProt P62258).
T16 construct: Proteins enriched by c-ponatinib from U2OS cell lysate; endogenous in cells; host or cells: U2OS cell lysate
As to conditions: YWHAE, 14-3-3 protein epsilon. The gist of the method:
as §1

Assay [17] deals with T17, proteins of U2OS cell lysate (Homo sapiens, UniProt P60660).
T17 construct: Proteins enriched by c-ponatinib from U2OS cell lysate; endogenous in cells; host or cells: U2OS cell lysate
As to conditions: MYL6, Myosin light polypeptide 6. The gist of the method: as §1

For assay [18], the target named is T18, proteins of U2OS cell lysate (Homo sapiens, UniProt P62333).
T18 construct: Proteins enriched by c-ponatinib from U2OS cell lysate; endogenous in cells; host or cells: U2OS cell lysate
As to conditions: PSMC6, 26S protease regulatory subunit 10B. The gist of the method: as §1

Assay [19] has as its target T19, proteins of U2OS cell lysate (Homo sapiens, UniProt Q13200).
T19 construct: Proteins enriched by c-ponatinib from U2OS cell lysate; endogenous in cells; host or cells: U2OS cell lysate
As to conditions: captured protein PSMD2, Rank 205. The gist of the method: as §1

T16 sequence (P62258 whole entry): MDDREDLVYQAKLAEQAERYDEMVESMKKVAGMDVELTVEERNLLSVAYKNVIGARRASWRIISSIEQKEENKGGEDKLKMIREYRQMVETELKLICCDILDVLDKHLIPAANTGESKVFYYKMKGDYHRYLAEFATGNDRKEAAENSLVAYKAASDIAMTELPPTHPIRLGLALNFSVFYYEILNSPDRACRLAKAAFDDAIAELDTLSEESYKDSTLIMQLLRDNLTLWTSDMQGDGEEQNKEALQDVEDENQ
T9 sequence (Q8N3V7 whole entry): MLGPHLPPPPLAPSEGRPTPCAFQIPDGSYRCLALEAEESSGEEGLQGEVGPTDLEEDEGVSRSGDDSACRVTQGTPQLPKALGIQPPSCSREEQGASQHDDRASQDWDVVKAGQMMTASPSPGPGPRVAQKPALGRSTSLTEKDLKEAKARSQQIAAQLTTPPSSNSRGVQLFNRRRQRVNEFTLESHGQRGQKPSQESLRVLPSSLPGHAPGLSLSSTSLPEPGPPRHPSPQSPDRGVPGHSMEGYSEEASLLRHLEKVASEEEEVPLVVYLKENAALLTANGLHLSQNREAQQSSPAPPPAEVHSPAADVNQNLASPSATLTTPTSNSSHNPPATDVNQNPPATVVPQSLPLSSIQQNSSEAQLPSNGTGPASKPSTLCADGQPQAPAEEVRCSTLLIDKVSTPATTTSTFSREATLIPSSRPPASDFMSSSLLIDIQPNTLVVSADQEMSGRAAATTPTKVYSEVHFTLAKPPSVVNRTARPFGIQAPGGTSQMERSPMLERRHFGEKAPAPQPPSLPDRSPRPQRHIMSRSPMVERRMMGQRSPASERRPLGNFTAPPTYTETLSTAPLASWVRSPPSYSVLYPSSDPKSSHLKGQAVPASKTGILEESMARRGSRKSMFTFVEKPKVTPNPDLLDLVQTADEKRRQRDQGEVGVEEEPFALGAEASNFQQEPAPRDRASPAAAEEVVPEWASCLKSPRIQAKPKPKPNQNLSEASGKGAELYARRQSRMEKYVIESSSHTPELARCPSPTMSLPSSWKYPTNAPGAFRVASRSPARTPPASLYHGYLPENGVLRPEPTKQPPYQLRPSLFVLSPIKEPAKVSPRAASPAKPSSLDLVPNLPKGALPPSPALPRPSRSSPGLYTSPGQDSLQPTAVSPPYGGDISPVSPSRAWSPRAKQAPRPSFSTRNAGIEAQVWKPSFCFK
T11 sequence (P26368 whole entry): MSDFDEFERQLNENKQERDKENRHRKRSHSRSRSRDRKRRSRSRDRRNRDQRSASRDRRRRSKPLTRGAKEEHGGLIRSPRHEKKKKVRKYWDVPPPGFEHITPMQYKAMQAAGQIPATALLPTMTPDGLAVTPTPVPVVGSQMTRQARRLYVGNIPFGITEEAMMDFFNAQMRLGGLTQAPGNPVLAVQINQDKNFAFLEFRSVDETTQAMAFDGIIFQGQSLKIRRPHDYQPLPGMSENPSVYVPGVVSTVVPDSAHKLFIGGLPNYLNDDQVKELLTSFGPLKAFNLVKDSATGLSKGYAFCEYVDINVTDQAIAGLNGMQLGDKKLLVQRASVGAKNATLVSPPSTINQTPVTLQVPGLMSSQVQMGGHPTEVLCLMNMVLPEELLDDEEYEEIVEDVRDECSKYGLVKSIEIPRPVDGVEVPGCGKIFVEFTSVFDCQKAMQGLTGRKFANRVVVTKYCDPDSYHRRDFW
T6 sequence (Q9ULV4 whole entry): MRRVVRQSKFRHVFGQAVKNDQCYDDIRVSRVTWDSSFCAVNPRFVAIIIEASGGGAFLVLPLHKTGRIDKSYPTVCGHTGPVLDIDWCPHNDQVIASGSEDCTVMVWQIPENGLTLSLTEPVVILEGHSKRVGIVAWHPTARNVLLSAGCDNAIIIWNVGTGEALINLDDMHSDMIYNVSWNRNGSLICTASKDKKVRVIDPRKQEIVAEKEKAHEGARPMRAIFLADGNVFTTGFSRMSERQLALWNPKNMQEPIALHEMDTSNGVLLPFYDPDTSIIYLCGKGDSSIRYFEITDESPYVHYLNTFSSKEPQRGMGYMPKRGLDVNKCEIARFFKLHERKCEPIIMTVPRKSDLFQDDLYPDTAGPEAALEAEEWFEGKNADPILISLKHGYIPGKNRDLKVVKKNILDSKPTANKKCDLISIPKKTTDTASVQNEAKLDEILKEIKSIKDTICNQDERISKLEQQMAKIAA
T7 sequence (P23284 34-216): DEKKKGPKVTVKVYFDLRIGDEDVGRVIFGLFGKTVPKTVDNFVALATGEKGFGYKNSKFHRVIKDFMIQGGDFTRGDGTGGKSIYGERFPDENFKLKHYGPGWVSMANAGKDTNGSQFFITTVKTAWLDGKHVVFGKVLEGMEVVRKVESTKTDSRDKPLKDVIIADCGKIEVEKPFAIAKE
T5 sequence (P62491 whole entry): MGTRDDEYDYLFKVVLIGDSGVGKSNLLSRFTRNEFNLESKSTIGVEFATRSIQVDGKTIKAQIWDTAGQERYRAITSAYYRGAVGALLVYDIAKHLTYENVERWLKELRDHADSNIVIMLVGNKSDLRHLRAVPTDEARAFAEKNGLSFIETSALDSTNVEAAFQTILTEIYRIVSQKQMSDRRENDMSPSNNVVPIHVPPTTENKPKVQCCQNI
T12 sequence (Q9Y512 whole entry): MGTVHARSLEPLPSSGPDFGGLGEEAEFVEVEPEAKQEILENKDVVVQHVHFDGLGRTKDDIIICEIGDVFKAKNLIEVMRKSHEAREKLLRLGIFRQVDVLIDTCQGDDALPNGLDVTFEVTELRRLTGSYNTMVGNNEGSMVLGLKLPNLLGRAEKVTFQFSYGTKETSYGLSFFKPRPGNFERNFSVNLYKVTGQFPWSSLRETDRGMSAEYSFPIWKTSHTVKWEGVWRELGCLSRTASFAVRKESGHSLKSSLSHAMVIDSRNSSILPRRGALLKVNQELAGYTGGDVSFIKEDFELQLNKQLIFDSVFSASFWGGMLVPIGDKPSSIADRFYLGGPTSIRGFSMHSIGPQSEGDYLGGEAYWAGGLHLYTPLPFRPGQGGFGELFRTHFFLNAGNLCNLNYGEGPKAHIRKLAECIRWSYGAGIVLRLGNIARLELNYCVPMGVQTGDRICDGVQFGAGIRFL
T13 sequence (P34932 whole entry): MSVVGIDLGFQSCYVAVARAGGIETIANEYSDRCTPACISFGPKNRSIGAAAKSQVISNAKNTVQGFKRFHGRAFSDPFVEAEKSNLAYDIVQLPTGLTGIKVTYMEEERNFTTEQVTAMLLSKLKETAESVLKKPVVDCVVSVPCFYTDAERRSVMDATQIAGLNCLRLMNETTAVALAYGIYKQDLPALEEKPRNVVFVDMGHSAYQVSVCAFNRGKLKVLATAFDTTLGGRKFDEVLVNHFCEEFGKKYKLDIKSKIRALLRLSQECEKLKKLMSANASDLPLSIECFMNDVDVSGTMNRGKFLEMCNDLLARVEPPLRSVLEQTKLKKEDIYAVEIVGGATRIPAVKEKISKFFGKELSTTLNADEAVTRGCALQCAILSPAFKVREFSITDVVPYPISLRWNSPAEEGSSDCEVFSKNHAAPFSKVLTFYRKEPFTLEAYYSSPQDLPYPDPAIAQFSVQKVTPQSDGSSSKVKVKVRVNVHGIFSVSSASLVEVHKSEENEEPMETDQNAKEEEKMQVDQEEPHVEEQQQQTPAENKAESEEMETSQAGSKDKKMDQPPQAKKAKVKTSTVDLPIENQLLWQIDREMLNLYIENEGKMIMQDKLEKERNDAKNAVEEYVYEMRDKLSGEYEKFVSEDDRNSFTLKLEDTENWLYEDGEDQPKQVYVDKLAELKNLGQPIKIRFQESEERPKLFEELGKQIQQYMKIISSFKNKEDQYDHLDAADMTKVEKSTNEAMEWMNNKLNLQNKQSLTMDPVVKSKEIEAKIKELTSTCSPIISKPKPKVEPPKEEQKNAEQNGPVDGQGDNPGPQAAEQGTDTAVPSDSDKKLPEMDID
T14 sequence (P68371 whole entry): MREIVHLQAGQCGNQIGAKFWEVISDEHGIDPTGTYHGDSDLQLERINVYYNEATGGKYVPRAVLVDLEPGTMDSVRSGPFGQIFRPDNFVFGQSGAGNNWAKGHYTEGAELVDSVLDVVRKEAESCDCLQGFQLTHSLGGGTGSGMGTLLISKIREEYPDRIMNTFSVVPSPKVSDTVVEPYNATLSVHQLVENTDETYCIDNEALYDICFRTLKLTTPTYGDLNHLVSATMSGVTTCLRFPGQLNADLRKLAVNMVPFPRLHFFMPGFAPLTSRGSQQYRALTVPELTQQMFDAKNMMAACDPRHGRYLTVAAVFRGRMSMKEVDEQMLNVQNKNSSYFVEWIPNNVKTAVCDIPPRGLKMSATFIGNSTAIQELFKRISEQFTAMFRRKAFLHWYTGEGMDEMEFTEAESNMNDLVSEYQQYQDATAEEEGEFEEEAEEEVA
T10 sequence (O00231 whole entry): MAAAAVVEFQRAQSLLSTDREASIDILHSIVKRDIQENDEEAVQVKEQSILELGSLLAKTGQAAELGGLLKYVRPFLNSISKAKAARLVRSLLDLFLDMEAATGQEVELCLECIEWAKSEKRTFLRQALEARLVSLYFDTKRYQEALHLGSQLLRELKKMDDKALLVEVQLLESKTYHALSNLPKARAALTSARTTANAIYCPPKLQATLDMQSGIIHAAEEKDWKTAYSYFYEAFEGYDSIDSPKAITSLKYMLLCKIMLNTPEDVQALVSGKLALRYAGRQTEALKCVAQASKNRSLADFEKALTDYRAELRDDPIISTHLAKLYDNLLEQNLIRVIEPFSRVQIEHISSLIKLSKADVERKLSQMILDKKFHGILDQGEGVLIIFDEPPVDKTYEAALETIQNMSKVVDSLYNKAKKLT
T1 sequence (Q92522 whole entry): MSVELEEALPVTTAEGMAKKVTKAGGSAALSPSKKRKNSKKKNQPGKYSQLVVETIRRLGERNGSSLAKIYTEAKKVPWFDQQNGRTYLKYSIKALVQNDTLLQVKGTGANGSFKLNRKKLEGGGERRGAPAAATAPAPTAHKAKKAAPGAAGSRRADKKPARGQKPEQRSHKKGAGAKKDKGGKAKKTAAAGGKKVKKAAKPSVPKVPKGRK

Regarding `Cc1ccc(C(=O)Nc2ccc(CN3CCN(C)CC3)c(C(F)(F)F)c2)cc1C#Cc1cnc2cccnn12` [PON], the “Average LFQ PON_WT” value in assay [1] came out at 20.0616; in assay [2], 24.6179; in assay [3], 21.1056; in assay [4], 29.5288; in [5], 22.3634; in [6], 24.6024. The “Average LFQ PON_WT” value stood at 20.4971 in assay [7]; 19.4794 in assay [8]; 23.2218 in assay [9]; 21.0044 in assay [10]; 21.5048 in assay [11]; 20.9007 in assay [12]. The “Average LFQ PON_WT” value is listed as 24.3032 in assay [13]; 26.1041 in assay [14]; 27.1637 in [15]; 21.3893 in assay [16]; 23.7934 in [17]; 21.4756 in assay [18].

In the case of `Cc1ccc(C(=O)Nc2ccc(CN3CCN(CCCN)CC3)c(C(F)(F)F)c2)cc1C#Cc1cnc2cccnn12` [c-ponatinib, reference compound], in assay [19], the “Average LFQ intensity” value was 21.768.

Source of the values: publication PMC6120666 (The EMBO Journal, 2018).
